# Laboratory results: ChEMBL document CHEMBL4251615, “Discovery of anilino-furo[2,3-d]pyrimidine derivatives as dual inhibitors of EGFR/HER2 tyrosine kinase and their anticancer activity” (Eur J Med Chem, 2018)
# Test system: UO-31
# Experiment: Growth inhibition of human UO31 cells assessed as cell growth at 10 uM incubated for 48 hrs by sulforhodamine B assay relative to control
# Assay type: functional
# Conditions: UO-31, 48 h, read-out: Activity
row,Compound,growth at 10 µM
1,Cc1cccc(Nc2ncnc3oc(C)c(C(=O)NCCO)c23)c1,86.2%
2,Cc1oc2ncnc(Nc3cccc(F)c3)c2c1C(=O)NCCO,96.5%

# Test system: M14
# Experiment: Growth inhibition of human M14 cells assessed as cell growth at 10 uM incubated for 48 hrs by sulforhodamine B assay relative to control
# Assay type: functional
# Conditions: M14, 48 h, read-out: Activity
row,Compound,growth at 10 µM
1,Cc1cccc(Nc2ncnc3oc(C)c(C(=O)NCCO)c23)c1,103%
2,Cc1oc2ncnc(Nc3cccc(F)c3)c2c1C(=O)NCCO,109%

# Test system: SK-MEL-5
# Experiment: Growth inhibition of human SK-MEL-5 cells assessed as cell growth at 10 uM incubated for 48 hrs by sulforhodamine B assay relative to control
# Assay type: functional
# Conditions: SK-MEL-5, 48 h, read-out: Activity
row,Compound,growth at 10 µM
1,Cc1cccc(Nc2ncnc3oc(C)c(C(=O)NCCO)c23)c1,94.6%
2,Cc1oc2ncnc(Nc3cccc(F)c3)c2c1C(=O)NCCO,102%

# Test system: T47D
# Experiment: Growth inhibition of human T47D cells assessed as cell growth at 10 uM incubated for 48 hrs by sulforhodamine B assay relative to control
# Assay type: functional
# Conditions: read-out: Activity
row,Compound,growth at 10 µM
1,Cc1cccc(Nc2ncnc3oc(C)c(C(=O)NCCO)c23)c1,84.3%
2,Cc1oc2ncnc(Nc3cccc(F)c3)c2c1C(=O)NCCO,95.4%

# Test system: A498
# Experiment: Growth inhibition of human A498 cells assessed as cell growth at 10 uM incubated for 48 hrs by sulforhodamine B assay relative to control
# Assay type: functional
# Conditions: A498, 48 h, read-out: Activity
row,Compound,growth at 10 µM
1,Cc1cccc(Nc2ncnc3oc(C)c(C(=O)NCCO)c23)c1,74.7%
2,Cc1oc2ncnc(Nc3cccc(F)c3)c2c1C(=O)NCCO,83%

# Test system: SF-539
# Experiment: Growth inhibition of human SF539 cells assessed as cell growth at 10 uM incubated for 48 hrs by sulforhodamine B assay relative to control
# Assay type: functional
# Conditions: SF-539, 48 h, read-out: Activity
row,Compound,growth at 10 µM
1,Cc1cccc(Nc2ncnc3oc(C)c(C(=O)NCCO)c23)c1,92.5%
2,Cc1oc2ncnc(Nc3cccc(F)c3)c2c1C(=O)NCCO,90.9%

# Test system: UACC-62
# Experiment: Growth inhibition of human UACC62 cells assessed as cell growth at 10 uM incubated for 48 hrs by sulforhodamine B assay relative to control
# Assay type: functional
# Conditions: UACC-62, 48 h, read-out: Activity
row,Compound,growth at 10 µM
1,Cc1cccc(Nc2ncnc3oc(C)c(C(=O)NCCO)c23)c1,83.1%
2,Cc1oc2ncnc(Nc3cccc(F)c3)c2c1C(=O)NCCO,92.2%

# Test system: NCI-H460
# Experiment: Growth inhibition of human NCI-H460 cells assessed as cell growth at 10 uM incubated for 48 hrs by sulforhodamine B assay relative to control
# Assay type: functional
# Conditions: NCI-H460, 48 h, read-out: Activity
row,Compound,growth at 10 µM
1,Cc1cccc(Nc2ncnc3oc(C)c(C(=O)NCCO)c23)c1,102%
2,Cc1oc2ncnc(Nc3cccc(F)c3)c2c1C(=O)NCCO,105%

# Test system: OVCAR-5
# Experiment: Growth inhibition of human OVCAR5 cells assessed as cell growth at 10 uM incubated for 48 hrs by sulforhodamine B assay relative to control
# Assay type: functional
# Conditions: OVCAR-5, 48 h, read-out: Activity
row,Compound,growth at 10 µM
1,Cc1cccc(Nc2ncnc3oc(C)c(C(=O)NCCO)c23)c1,95.3%
2,Cc1oc2ncnc(Nc3cccc(F)c3)c2c1C(=O)NCCO,100%

# Test system: CCRF-CEM
# Experiment: Growth inhibition of human CCRF-CEM cells assessed as cell growth at 10 uM incubated for 48 hrs by sulforhodamine B assay relative to control
# Assay type: functional
# Conditions: read-out: Activity
row,Compound,growth at 10 µM
1,Cc1cccc(Nc2ncnc3oc(C)c(C(=O)NCCO)c23)c1,74%
2,Cc1oc2ncnc(Nc3cccc(F)c3)c2c1C(=O)NCCO,117%

# Test system: OVCAR-8
# Experiment: Growth inhibition of human OVCAR8 cells assessed as cell growth at 10 uM incubated for 48 hrs by sulforhodamine B assay relative to control
# Assay type: functional
# Conditions: OVCAR-8, 48 h, read-out: Activity
row,Compound,growth at 10 µM
1,Cc1cccc(Nc2ncnc3oc(C)c(C(=O)NCCO)c23)c1,104%
2,Cc1oc2ncnc(Nc3cccc(F)c3)c2c1C(=O)NCCO,105%

# Test system: SR
# Experiment: Growth inhibition of human SR cells assessed as cell growth at 10 uM incubated for 48 hrs by sulforhodamine B assay relative to control
# Assay type: functional
# Conditions: read-out: Activity
row,Compound,growth at 10 µM
1,Cc1cccc(Nc2ncnc3oc(C)c(C(=O)NCCO)c23)c1,90.8%

# Test system: NCI-H226
# Experiment: Growth inhibition of human NCI-H226 cells assessed as cell growth at 10 uM incubated for 48 hrs by sulforhodamine B assay relative to control
# Assay type: functional
# Conditions: NCI-H226, 48 h, read-out: Activity
row,Compound,growth at 10 µM
1,Cc1cccc(Nc2ncnc3oc(C)c(C(=O)NCCO)c23)c1,93.3%
2,Cc1oc2ncnc(Nc3cccc(F)c3)c2c1C(=O)NCCO,106%

# Test system: COLO 205
# Experiment: Growth inhibition of human COLO205 cells assessed as cell growth at 10 uM incubated for 48 hrs by sulforhodamine B assay relative to control
# Assay type: functional
# Conditions: COLO 205, 48 h, read-out: Activity
row,Compound,growth at 10 µM
1,Cc1cccc(Nc2ncnc3oc(C)c(C(=O)NCCO)c23)c1,99%
2,Cc1oc2ncnc(Nc3cccc(F)c3)c2c1C(=O)NCCO,111%

# Test system: NCI/ADR-RES
# Experiment: Growth inhibition of human NCI/ADR-RES cells assessed as cell growth at 10 uM incubated for 48 hrs by sulforhodamine B assay relative to control
# Assay type: functional
# Conditions: read-out: Activity
row,Compound,growth at 10 µM
1,Cc1cccc(Nc2ncnc3oc(C)c(C(=O)NCCO)c23)c1,92.4%
2,Cc1oc2ncnc(Nc3cccc(F)c3)c2c1C(=O)NCCO,114%

# Target: Epidermal growth factor receptor (Homo sapiens, UniProt P00533)
# Experiment: Inhibition of recombinant human C-terminal His/N-terminal GST-tagged EGFR (668 to 1210 residues) expressed in baculovirus infected Sf9 cells at 10 uM using biotin-labeled poly[Glu:Tyr] (4:1) as substrate after 30 mins by Kinase-Glo plus luminescence assay relative to control
# Conditions: not given
# Sequence of Epidermal growth factor receptor (P00533 whole entry, the tested form may be a part): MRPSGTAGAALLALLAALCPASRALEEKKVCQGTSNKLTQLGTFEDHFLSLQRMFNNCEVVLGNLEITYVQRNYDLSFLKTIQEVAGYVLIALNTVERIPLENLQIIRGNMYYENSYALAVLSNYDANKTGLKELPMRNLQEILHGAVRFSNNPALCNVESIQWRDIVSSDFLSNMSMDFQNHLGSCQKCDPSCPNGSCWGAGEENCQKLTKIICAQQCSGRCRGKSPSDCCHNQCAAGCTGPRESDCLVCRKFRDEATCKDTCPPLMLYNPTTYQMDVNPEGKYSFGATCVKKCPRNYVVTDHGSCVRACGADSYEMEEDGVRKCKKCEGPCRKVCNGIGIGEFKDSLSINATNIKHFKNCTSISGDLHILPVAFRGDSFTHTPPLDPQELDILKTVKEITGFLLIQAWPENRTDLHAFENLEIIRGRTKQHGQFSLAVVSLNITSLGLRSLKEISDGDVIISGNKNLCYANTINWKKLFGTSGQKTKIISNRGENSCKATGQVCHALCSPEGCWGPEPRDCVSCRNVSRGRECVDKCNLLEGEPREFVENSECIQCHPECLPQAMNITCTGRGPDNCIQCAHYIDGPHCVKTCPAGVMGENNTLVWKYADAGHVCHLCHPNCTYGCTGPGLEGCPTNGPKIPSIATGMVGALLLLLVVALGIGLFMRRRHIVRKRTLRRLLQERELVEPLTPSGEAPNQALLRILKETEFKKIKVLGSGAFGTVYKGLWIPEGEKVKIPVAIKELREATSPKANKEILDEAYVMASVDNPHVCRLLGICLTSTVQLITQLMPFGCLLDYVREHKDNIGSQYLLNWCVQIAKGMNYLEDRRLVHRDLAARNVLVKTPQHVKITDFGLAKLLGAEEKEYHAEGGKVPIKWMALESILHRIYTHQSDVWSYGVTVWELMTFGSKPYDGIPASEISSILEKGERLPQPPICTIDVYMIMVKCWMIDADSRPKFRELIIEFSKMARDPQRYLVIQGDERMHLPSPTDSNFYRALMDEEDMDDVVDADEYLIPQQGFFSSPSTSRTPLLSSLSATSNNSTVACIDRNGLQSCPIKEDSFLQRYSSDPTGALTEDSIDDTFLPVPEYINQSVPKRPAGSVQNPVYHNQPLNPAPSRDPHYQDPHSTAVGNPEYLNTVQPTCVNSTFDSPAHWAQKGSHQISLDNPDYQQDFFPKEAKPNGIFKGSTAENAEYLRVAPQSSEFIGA
row,Compound,inhibition
1,Cc1cccc(Nc2ncnc3oc(C)c(C(=O)NCCO)c23)c1,36%
2,Cc1oc2ncnc(Nc3cccc(F)c3)c2c1C(=O)NCCO,20%

# Test system: SK-MEL-28
# Experiment: Growth inhibition of human SK-MEL-28 cells assessed as cell growth at 10 uM incubated for 48 hrs by sulforhodamine B assay relative to control
# Assay type: functional
# Conditions: SK-MEL-28, 48 h, read-out: Activity
row,Compound,growth at 10 µM
1,Cc1cccc(Nc2ncnc3oc(C)c(C(=O)NCCO)c23)c1,102%
2,Cc1oc2ncnc(Nc3cccc(F)c3)c2c1C(=O)NCCO,104%

# Test system: KM12
# Experiment: Growth inhibition of human KM12 cells assessed as cell growth at 10 uM incubated for 48 hrs by sulforhodamine B assay relative to control
# Assay type: functional
# Conditions: KM12, 48 h, read-out: Activity
row,Compound,growth at 10 µM
1,Cc1cccc(Nc2ncnc3oc(C)c(C(=O)NCCO)c23)c1,93.9%
2,Cc1oc2ncnc(Nc3cccc(F)c3)c2c1C(=O)NCCO,97.9%

# Test system: DU-145
# Experiment: Growth inhibition of human DU145 cells assessed as cell growth at 10 uM incubated for 48 hrs by sulforhodamine B assay relative to control
# Assay type: functional
# Conditions: DU-145, 48 h, read-out: Activity
row,Compound,growth at 10 µM
1,Cc1cccc(Nc2ncnc3oc(C)c(C(=O)NCCO)c23)c1,103%
2,Cc1oc2ncnc(Nc3cccc(F)c3)c2c1C(=O)NCCO,105%

# Test system: SK-OV-3
# Experiment: Growth inhibition of human SKOV3 cells assessed as cell growth at 10 uM incubated for 48 hrs by sulforhodamine B assay relative to control
# Assay type: functional
# Conditions: SK-OV-3, 48 h, read-out: Activity
row,Compound,growth at 10 µM
1,Cc1cccc(Nc2ncnc3oc(C)c(C(=O)NCCO)c23)c1,94.8%
2,Cc1oc2ncnc(Nc3cccc(F)c3)c2c1C(=O)NCCO,89.2%

# Test system: HCT-15
# Experiment: Growth inhibition of human HCT15 cells assessed as cell growth at 10 uM incubated for 48 hrs by sulforhodamine B assay relative to control
# Assay type: functional
# Conditions: HCT-15, 48 h, read-out: Activity
row,Compound,growth at 10 µM
1,Cc1cccc(Nc2ncnc3oc(C)c(C(=O)NCCO)c23)c1,93.7%

# Test system: K562
# Experiment: Growth inhibition of human K562 cells assessed as cell growth at 10 uM incubated for 48 hrs by sulforhodamine B assay relative to control
# Assay type: functional
# Conditions: K562, 48 h, read-out: Activity
row,Compound,growth at 10 µM
1,Cc1cccc(Nc2ncnc3oc(C)c(C(=O)NCCO)c23)c1,90.2%

# Test system: CAKI-1
# Experiment: Growth inhibition of human Caki1 cells assessed as cell growth at 10 uM incubated for 48 hrs by sulforhodamine B assay relative to control
# Assay type: functional
# Conditions: CAKI-1, 48 h, read-out: Activity
row,Compound,growth at 10 µM
1,Cc1cccc(Nc2ncnc3oc(C)c(C(=O)NCCO)c23)c1,87.2%
2,Cc1oc2ncnc(Nc3cccc(F)c3)c2c1C(=O)NCCO,90.5%

# Test system: LOX IMVI
# Experiment: Growth inhibition of human LOXIMVI cells assessed as cell growth at 10 uM incubated for 48 hrs by sulforhodamine B assay relative to control
# Assay type: functional
# Conditions: read-out: Activity
row,Compound,growth at 10 µM
1,Cc1cccc(Nc2ncnc3oc(C)c(C(=O)NCCO)c23)c1,93%
2,Cc1oc2ncnc(Nc3cccc(F)c3)c2c1C(=O)NCCO,100%

# Test system: SNB-75
# Experiment: Growth inhibition of human SNB75 cells assessed as cell growth at 10 uM incubated for 48 hrs by sulforhodamine B assay relative to control
# Assay type: functional
# Conditions: SNB-75, 48 h, read-out: Activity
row,Compound,growth at 10 µM
1,Cc1cccc(Nc2ncnc3oc(C)c(C(=O)NCCO)c23)c1,110%
2,Cc1oc2ncnc(Nc3cccc(F)c3)c2c1C(=O)NCCO,92.2%

# Test system: HOP-62
# Experiment: Growth inhibition of human HOP62 cells assessed as cell growth at 10 uM incubated for 48 hrs by sulforhodamine B assay relative to control
# Assay type: functional
# Conditions: HOP-62, 48 h, read-out: Activity
row,Compound,growth at 10 µM
1,Cc1cccc(Nc2ncnc3oc(C)c(C(=O)NCCO)c23)c1,98.2%
2,Cc1oc2ncnc(Nc3cccc(F)c3)c2c1C(=O)NCCO,97.4%
